Laboratory results from article PMC3509773 (The botulinum journal, 2011).

Key:
Format in all cases: biochemical
MMP-9 = MMP-9 (Homo sapiens, UniProt P14780); conditions: read-out: IC50 MMP-9 (FRET assay)
MMP-2 = MMP-2 (Homo sapiens, UniProt P08253); conditions: read-out: IC50 MMP-2 (FRET assay)
BoNT/B LC = BoNT/B LC (Clostridium botulinum, UniProt P10844); conditions: read-out: IC50 BoNT/B LC FRET
MMP-1 = MMP-1 (Homo sapiens, UniProt P03956); conditions: read-out: IC50 MMP-1 (FRET assay)
BaLF = BaLF (Bacillus anthracis, UniProt P15917); conditions: read-out: IC50 BaLF FRET
BoNT/A LC = BoNT/A LC (Clostridium botulinum, UniProt P0DPI0)
BoNT/A LC, sequence (P0DPI0 2-448 limits assumed): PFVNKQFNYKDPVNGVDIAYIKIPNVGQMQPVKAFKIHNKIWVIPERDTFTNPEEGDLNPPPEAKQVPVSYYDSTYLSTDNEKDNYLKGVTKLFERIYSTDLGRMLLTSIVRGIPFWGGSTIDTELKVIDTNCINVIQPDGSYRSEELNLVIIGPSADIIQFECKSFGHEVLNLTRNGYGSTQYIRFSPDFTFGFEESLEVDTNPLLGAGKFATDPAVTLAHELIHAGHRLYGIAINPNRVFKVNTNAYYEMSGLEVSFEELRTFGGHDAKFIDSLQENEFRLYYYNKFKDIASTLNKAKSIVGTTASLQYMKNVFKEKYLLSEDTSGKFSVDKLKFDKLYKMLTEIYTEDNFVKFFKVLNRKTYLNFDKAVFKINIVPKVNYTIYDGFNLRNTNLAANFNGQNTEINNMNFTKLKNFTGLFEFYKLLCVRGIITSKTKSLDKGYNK

MMP-1, sequence (P03956 100-469): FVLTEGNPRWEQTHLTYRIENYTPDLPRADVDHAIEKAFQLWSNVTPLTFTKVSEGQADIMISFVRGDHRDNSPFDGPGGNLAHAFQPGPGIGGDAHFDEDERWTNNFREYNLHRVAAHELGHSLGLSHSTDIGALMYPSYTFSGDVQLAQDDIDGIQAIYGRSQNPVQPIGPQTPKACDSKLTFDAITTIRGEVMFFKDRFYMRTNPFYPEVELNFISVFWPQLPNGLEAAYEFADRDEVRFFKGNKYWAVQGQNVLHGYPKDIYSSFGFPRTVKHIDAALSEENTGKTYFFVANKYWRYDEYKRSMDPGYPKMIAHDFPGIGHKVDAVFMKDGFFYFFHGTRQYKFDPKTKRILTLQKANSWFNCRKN
MMP-9, sequence (P14780 94-707): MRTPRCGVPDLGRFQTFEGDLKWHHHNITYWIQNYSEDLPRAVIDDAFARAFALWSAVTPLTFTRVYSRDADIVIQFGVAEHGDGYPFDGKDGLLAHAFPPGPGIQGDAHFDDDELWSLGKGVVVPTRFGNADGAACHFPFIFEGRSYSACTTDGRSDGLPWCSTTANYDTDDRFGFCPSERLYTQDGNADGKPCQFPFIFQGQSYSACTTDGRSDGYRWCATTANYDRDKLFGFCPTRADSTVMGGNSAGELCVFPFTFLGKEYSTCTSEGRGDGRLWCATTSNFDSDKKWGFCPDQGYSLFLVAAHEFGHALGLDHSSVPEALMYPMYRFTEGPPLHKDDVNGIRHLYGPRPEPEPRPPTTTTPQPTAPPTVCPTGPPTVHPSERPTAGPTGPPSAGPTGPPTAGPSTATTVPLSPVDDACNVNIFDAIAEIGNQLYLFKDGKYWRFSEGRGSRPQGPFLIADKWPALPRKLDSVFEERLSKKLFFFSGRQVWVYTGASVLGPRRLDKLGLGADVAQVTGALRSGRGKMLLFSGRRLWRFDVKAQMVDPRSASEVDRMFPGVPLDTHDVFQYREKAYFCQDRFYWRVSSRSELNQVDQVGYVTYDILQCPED
BoNT/B LC, sequence (P10844 2-441 limits assumed): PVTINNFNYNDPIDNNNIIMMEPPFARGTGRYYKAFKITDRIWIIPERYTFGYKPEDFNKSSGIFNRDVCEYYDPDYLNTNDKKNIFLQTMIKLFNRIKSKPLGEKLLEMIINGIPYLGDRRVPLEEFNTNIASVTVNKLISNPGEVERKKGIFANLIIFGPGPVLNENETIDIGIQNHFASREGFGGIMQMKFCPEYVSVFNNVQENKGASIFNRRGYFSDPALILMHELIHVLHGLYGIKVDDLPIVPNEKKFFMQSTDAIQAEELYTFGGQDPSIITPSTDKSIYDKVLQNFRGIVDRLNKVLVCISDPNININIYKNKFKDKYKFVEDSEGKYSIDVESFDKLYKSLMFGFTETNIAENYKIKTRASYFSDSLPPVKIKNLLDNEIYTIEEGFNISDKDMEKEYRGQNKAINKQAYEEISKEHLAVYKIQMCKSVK
BaLF, sequence (P15917 34-809 limits assumed): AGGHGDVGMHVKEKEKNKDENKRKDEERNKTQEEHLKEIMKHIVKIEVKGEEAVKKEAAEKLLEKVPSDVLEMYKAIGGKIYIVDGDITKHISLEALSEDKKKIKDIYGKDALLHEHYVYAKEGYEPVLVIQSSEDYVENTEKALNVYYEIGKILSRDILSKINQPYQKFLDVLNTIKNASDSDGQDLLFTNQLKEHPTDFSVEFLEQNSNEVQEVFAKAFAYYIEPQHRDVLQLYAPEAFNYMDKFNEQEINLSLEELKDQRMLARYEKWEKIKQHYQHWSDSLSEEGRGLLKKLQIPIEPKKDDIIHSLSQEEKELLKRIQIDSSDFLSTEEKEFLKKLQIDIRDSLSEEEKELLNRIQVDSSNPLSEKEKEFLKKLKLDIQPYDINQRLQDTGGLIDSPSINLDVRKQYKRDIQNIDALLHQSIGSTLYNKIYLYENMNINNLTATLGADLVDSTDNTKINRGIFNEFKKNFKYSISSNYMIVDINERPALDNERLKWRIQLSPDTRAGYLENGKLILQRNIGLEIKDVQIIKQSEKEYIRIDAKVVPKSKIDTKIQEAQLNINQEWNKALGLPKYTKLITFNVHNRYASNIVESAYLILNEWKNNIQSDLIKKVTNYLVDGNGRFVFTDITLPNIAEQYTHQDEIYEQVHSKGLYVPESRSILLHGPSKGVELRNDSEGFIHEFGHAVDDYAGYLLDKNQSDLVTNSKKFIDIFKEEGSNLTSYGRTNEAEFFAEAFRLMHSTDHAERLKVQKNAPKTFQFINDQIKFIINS
MMP-2, sequence (P08253 110-660): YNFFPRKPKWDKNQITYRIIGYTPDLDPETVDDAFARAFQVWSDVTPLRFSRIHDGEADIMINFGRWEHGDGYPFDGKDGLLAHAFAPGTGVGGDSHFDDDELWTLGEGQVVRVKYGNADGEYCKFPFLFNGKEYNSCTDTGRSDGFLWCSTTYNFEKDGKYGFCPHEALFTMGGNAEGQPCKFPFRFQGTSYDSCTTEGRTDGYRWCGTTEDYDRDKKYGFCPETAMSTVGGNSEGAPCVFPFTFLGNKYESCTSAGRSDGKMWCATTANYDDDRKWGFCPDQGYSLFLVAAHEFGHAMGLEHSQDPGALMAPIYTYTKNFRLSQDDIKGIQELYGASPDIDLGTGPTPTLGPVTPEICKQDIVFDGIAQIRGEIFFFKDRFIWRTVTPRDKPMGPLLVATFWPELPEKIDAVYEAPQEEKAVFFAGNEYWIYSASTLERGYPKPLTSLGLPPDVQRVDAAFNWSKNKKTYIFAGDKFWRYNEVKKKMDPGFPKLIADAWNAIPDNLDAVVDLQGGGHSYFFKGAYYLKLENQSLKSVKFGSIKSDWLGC

Compound | IC50 (MMP-9) | IC50 (MMP-2) | IC50 (BoNT/B LC) | IC50 (MMP-1) | IC50 (BaLF) | inhibition of BoNT/A LC activity (BoNT/A LC)
O=C(C=Cc1ccc(Cl)cc1Cl)NO [Hydroxamate, N-Hydroxy-2,4-dichlorocinnanamide] | > 100 µM | > 100 µM | > 100 µM | > 100 µM | > 100 µM | 
[Cl-].[Cl-].[Zn+2] [zinc chloride] |  |  |  |  |  | 4–5%
